In patent US20130109703A1, “Combination of a GPR119 Agonist and the DPP-IV Inhibitor Linagliptin for Use in the Treatment of Diabetes and Related Conditions” (Boehringer Ingelheim International GmbH, priority 2010, published 2013):

How the values were obtained:
[1] = system: Zucker Diabetic Fatty (ZDF) rats (ZDF/Crl-Lepr^fa); assay: Oral glucose tolerance test in overnight fasted 9-weeks old male ZDF rats; assay type: in vivo, rat; conditions: 1st Example, FIG. 1; single oral dose 30 min before oral glucose load 2 g/kg; Cpd. A 3 mg/kg, Cpd. B 100 mg/kg, combination at the same doses; versus vehicle
Method: (§1) According to a first example an oral glucose tolerance test is performed in overnight fasted 9-weeks old male Zucker Diabetic Fatty (ZDF) rats (ZDF/Crl-Lepr^fa). A pre-dose blood sample is obtained by tail bleed. Blood glucose is measured with a glucometer, and the animals are randomized for blood glucose (n=5/group). […] The animals receive an oral glucose load (2 g/kg) 30 min after compound administration. Blood glucose is measured in tail blood 15 min, 30 min, 60 min, and 90 min after the glucose challenge. Glucose excursion is quantified by calculating the reactive glucose AUC. The data are presented as mean±SEM. The two-sided unpaired Student t-test is used for statistical comparison of the control group and the active groups as well as between active groups.

[2] = system: Zucker Diabetic Fatty (ZDF) rats (ZDF/Crl-Lepr^fa); assay: Oral glucose tolerance test in overnight fasted 15-weeks old male ZDF rats (highly insulin-resistant model); assay type: in vivo, rat; conditions: single oral dose 30 min before oral glucose load 2 g/kg, Cpd. A 3 mg/kg, combination at the same doses, versus vehicle
Method: as §1, with “to a second example an” for “to a first example an”, “overnight fasted 15-weeks old male” for “overnight fasted 9-weeks old male”, “rats (ZDF/Crl-Lepr^fa). This aged ZDF rats serve as a highly insulin-resistant animal model. A pre-dose” for “rats (ZDF/Crl-Lepr^fa). A pre-dose”, “tail blood 30 min,” for “tail blood 15 min, 30 min,”, “60 min, 90 min, 120 min, and 180” for “60 min, and 90”, “min, and 180 min after” for “min, and 90 min after”

[3] = Excretion route of BI 1356 at therapeutic oral dose levels; assay type: in vivo

excretion via the kidney [3]: < 7 % of the administered oral dose
Structure (SMILES): CC#CCn1c(N2CCC[C@@H](N)C2)nc2c1c(=O)n(Cc1nc(C)c3ccccc3n1)c(=O)n2C [Cpd. A, 1-[(4-methyl-quinazolin-2-yl)methyl]-3-methyl-7-(2-butyn-1-yl)-8-(3-(R)-amino-piperidin-1-yl)-xanthine]
reduction of glucose excursion (reactive glucose AUC) [1]: 49% | reduction of glucose excursion (reactive glucose AUC) ([2]; 2nd Example, FIG. 2, Cpd. B 30 mg/kg): 1% | reduction of glucose excursion (reactive glucose AUC) ([2]; 3rd Example, FIG. 3, Cpd. B 10 mg/kg): 1%
